Assay results taken from patent US6762045B2, “Membrane derived caspase-3, compositions comprising the same and methods of use therefor” (Idun Pharmaceuticals, Inc., priority 2000, dated 2004).
Read-outs that look alike come from different tables or passages of the source.

Experiments:
[1] = target: T1, 697-neo HM (caspase-1 treated) derived caspase (Homo sapiens, UniProt P42574); test: Inhibition of DEVD-amc cleavage, caspase-1 activated 697-neo heavy membranes; format: biochemical
T1 construct: the heavy membrane caspase is comprised of a large 19-kDa subunit and a smaller 12-kDa subunit; endogenous in cells; host or cells: 697-neo / 697-Bcl-2 human lymphoblastoid cells; supernatant assayed
T1 sequence (P42574 14-175): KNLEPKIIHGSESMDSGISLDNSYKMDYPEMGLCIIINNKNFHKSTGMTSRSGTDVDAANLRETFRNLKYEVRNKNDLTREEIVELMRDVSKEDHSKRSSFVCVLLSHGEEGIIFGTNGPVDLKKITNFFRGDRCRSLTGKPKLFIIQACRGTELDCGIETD
T1 sequence (P42574 176-277): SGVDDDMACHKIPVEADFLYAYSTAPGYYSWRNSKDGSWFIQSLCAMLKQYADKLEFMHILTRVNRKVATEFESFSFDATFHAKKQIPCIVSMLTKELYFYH
Protocol: (§1) SEQ ID NO:6) substrate in ICE buffer (20 mM HEPES, 1 mM EDTA, 0.1% CHAPS, 10% sucrose, 5 mM DTT, pH 7.5) in duplicate Cytoplate wells. […] KM values were calculated from these measurements using the equation: where ΔFL/Δt is the observed initial rate of fluorescence change at substrate concentration [S] and (ΔFL/Δt)MAX is the initial rate of fluorescence change at saturating substrate concentrations. For inhibition studies, 50 μl of the enzyme was pretreated with 150 μl inhibitor for 30 min at room temperature prior to the addition of 50 μl of 50 μM substrate solution.

[2] = target: T2, 697 Bcl-2 HM (caspase-1 treated) derived caspase (Homo sapiens, UniProt P42574); test: Inhibition of DEVD-amc cleavage, caspase-1 activated 697-Bcl-2 heavy membranes; format: biochemical
T2 construct: the heavy membrane caspase is comprised of a large 19-kDa subunit and a smaller 12-kDa subunit; endogenous in cells; host or cells: 697-neo / 697-Bcl-2 human lymphoblastoid cells; supernatant assayed
T2 sequence (P42574 14-175): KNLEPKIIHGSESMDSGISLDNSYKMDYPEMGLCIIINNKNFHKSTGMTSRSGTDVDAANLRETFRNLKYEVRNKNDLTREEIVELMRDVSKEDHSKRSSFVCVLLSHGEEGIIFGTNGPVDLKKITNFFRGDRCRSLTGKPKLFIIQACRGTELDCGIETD
T2 sequence (P42574 176-277): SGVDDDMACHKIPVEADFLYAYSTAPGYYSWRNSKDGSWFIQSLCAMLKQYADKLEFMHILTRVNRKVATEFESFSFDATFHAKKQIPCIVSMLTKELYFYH
Protocol: as §1

[3] = tested on: cortical cell HM (caspase-1 treated) derived caspase; test: Inhibition of DEVD-amc cleavage, caspase-1 activated E15 brain cortical cell heavy membranes; format: biochemical, mouse
Protocol: (§2) Caspase activity was measured by mixing 50 μl of an enzyme-containing fraction and 200 μl of 25 μM DEVD-amc (Asp-Glu-Val-Asp-aminomethylcoumarin; SEQ ID NO:6) substrate in ICE buffer (20 mM HEPES, 1 mM EDTA, 0.1% CHAPS, 10% sucrose, 5 mM DTT, pH 7.5) in duplicate Cytoplate wells. Product formation was monitored by the increase in fluorescence (ex=360 nm, em=460 nm) over 1-2 hours at 30° C. using the CytoFluor 4000 plate reader (Perseptive Biosystems, Framingham, Mass.). For kinetic studies, the substrate concentration was varied in the range 1-200 μM. KM values were calculated from these measurements using the equation: […]
(§3) where ΔFL/Δt is the observed initial rate of fluorescence change at substrate concentration [S] and (ΔFL/Δt)MAX is the initial rate of fluorescence change at saturating substrate concentrations. […] Inhibitor IC50 values were determined using the equation: […]
(§4) ΔFL/Δt is the observed initial rate of fluorescence change at inhibitor concentration [I] and (ΔFL/Δt)o is the initial rate fluorescence change for the uninhibited enzyme. […]
(§5) To determine if the presence of membrane derived caspase activity is a general property of mammalian cells, the DEVD-amc cleavage activity in heavy membranes from two other cell sources was measured: mouse E 15 primary brain cortical cells and the mouse dopaminergic MN9D cell line (Choi et al., […] 89:8943-8947, 1992). […]

[4] = target: MN9D HM (caspase-1 treated) derived caspase; test: Inhibition of DEVD-amc cleavage, caspase-1 activated MN9D heavy membranes; format: biochemical, mouse
Protocol: as §2, §3, §4, §5

[5] = target: T3, recombinant human caspase-3 (r-caspase-3 (His)6) (Homo sapiens, UniProt P42574); test: DEVD-amc cleavage by recombinant caspase-3; format: biochemical
T3 construct: The large subunit of purified bacterially expressed caspase-3 migrates as a 17-kDa band; purified fully-processed recombinant human caspase-3; His6 (C); made in house; host or cells: E. coli BL21 (DE3), pET21b; Ni2+ chelating column
T3 sequence (P42574 29-175 limits assumed): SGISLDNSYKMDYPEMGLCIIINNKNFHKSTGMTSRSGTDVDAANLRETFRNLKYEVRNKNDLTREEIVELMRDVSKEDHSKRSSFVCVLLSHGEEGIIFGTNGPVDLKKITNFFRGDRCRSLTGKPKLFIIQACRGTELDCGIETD
T3 sequence (P42574 176-277 limits assumed): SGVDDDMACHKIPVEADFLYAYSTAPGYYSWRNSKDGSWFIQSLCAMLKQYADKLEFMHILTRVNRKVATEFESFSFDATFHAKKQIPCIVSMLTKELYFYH
Protocol: (§6) For inhibition studies, 50 μl of the enzyme was pretreated with 150 μl inhibitor for 30 min at room temperature prior to the addition of 50 μl of 50 μM substrate solution.

[6] = target: T4, caspase-1 (Mus musculus, UniProt P29452); test: Caspase-1 inhibition; format: biochemical; details: 300 nM
T4 construct: contains the p30 caspase-1 cDNA inserted into the Nde I/BamH I sites of the pET3a expression vector; FLAG; made in house; host or cells: E. coli BL21 (DE3) pLysS, pET3a; used as clarified bacterial lysate
T4 sequence (P29452 119-296 limits assumed): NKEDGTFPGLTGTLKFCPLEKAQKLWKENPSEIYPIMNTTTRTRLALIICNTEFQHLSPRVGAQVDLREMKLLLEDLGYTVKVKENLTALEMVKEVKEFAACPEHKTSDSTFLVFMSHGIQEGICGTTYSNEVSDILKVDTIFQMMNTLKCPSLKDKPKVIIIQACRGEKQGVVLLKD
T4 sequence (P29452 315-402 limits assumed): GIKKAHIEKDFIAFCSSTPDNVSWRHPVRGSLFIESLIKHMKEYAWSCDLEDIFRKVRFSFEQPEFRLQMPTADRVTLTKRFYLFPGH

[7] = target: T5, caspase-1 activation of membrane derived procaspase-3 (Mus musculus, UniProt P29452); test: Caspase-1 mediated activation of membrane procaspase-3 in 697 heavy membranes; format: biochemical, human
T5 construct: contains the p30 caspase-1 cDNA inserted into the Nde I/BamH I sites of the pET3a expression vector; FLAG; made in house; host or cells: caspase-1: E. coli BL21 (DE3) pLysS lysate; procaspase-3: endogenous in 697 cell heavy membranes
T5 sequence (P29452 119-296 limits assumed): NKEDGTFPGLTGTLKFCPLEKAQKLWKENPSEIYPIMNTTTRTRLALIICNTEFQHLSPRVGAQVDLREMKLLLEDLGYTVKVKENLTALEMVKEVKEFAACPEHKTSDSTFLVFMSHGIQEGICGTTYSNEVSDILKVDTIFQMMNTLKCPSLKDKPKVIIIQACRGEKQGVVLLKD
T5 sequence (P29452 315-402 limits assumed): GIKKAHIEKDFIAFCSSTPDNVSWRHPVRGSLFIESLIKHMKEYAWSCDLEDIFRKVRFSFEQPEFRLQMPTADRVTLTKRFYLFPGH
Protocol: Heavy membrane samples were diluted to 1 mg/ml in hypotonic buffer or in 0.25 M sucrose, 10 mM MOPS, 2 mM EDTA, pH 7.4 (Mancini, et al., 1998) containing 5 mM DTT with or without 1% NP-40. […] After the activation period, the heavy membrane pellet was removed from the sample by centrifugation for 10 min at 14,000×g at 4° C. […] In some experiments, caspase-1 activity was rapidly quenched at specific time points by the addition of one-tenth volume 3 μM YVADaldehyde (Bachem Bioscience, King of Prussia, Pa.) prior to centrifugation. To examine the time course of spontaneous activation of caspase activity from membranes, 50 μi of heavy membrane slurry containing 50-100 μg total protein was mixed with 200 μl hypotonic buffer containing 25 μM DEVD-amc substrate and 6 mM DTT in 96 well Cytofluor plates and fluorescence was measured over time. At selected time points, aliquots were removed from some wells, centrifuged for 10 min at 14,000×g to remove the heavy membranes and the supernatant was added back into the 96 well plate to measure the soluble DEVD-amc cleavage activity. […]
In this experiment, heavy membrane fractions (containing 50 μg total protein) from 697-Bcl-2 and 697-neo cells were re-suspended and treated with murine caspase-1 for one hour at room temperature. Following centrifugation, the DEVD-amc cleavage activity of the resulting supernatant was measured.

[8] = target: T6, purified membrane derived caspase-3 (Homo sapiens, UniProt P42574); test: DEVD-AMC cleavage by affinity purified membrane derived caspase-3 from 697 cells; format: biochemical
T6 construct: the heavy membrane caspase is comprised of a large 19-kDa subunit and a smaller 12-kDa subunit; endogenous in cells; host or cells: 697 human lymphoblastoid cells
T6 sequence (P42574 14-175): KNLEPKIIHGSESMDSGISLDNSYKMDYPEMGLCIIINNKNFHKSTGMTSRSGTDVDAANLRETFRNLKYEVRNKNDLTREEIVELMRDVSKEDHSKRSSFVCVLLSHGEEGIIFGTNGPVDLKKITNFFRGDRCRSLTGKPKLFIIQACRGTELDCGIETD
T6 sequence (P42574 176-277): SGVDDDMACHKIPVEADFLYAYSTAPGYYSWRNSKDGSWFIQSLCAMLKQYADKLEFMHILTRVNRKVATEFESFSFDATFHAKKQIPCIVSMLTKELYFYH
Protocol: as §6

CC(=O)N[C@@H](Cc1ccc(O)cc1)C(=O)N[C@H](C(=O)N[C@@H](C)C(=O)N[C@H](C=O)CC(=O)O)C(C)C [YVAD-ald]
Inhibition of DEVD-AMC hydrolysis activity of caspase-1 activated membrane caspase ([1]; 300 nM): not inhibited | IC50 ([1]; inhibition of DEVD-amc cleavage): > 10 µM | IC50 [2]: > 10 µM | IC50 [3]: > 10 µM | IC50 [4]: > 10 µM | IC50 ([5]; inhibition of DEVD-amc cleavage, read-out: IC50 r-caspase-3 (His)6): > 10 µM | IC50 ([5]; read-out: IC50 caspase-3): > 10 µM | Inhibition of caspase-1 [6]: completely inhibits | Block of caspase-1 activation of membrane caspase ([7]; 200 nM): completely blocked | Block of activation of DEVD-AMC hydrolytic activity and generation of 20-kDa large subunit ([7]; caspase-1 pretreated with 300 nM): blocks

CC(C)[C@H](NC(=O)[C@H](CCC(=O)O)NC(=O)OCc1ccccc1)C(=O)N[C@H](C=O)CC(=O)O [ZEVDald]
IC50 ([8]; inhibition of DEVD-AMC cleavage, Table III, read-out: IC50 Membrane (purified membrane derived caspase-3)): 32 nM

B1: Baculovirus p35: early p35 protein from Autographa californica nuclear polyhedrosis virus, recombinant (protein)
chain: MCVIFPVEIDVSQTIIRDCQVDKQTRELVYINKIMNTQLTKPVLMMFNISGPIRSVTRKNNNLRDRIKSKVDEQFDQLERDYSDQMDGFHDSIKYFKDEHYSVSCQNGSVLKSKFAKILKSHDYTDKKSIEAYEKYCLPKLVDERNDYYVAVCVLKPGFENGSNQVLSFEYNPIGNKVIVPFAHEINDTGLYEYDVVAYVDSVQFDGEQFEEFVQSLILPSSFKNSEKVLYYNEASKNKSMIYKALEFTTESSWGKSEKYNWKIFCNGFIYDKKSKVLYVKLHNVTSALNKNVILNTIK
IC50 ([5]; inhibition of DEVD-AMC cleavage, Table III, read-out: IC50 Recombinant (caspase-3)): 4.1e-05 µM | IC50 ([8]; read-out: IC50 heavy membrane caspase from 697 cells): 0.074 nM
